In ChEMBL document CHEMBL4627407, “Identification of a Potent Oridonin Analogue for Treatment of Triple-Negative Breast Cancer” (J Med Chem, 2020):
pIC50: −log10 of the molar value. Active and inactive are the calls of the source. The rule behind the calls is not given here.

How the values were obtained:
[1] = tested on: HCC1806; experiment: Induction of cell cycle arrest in human HCC1806 cells assessed as increase in accumulation at G2/M phase after 48 hrs by propidium iodide staining based FACScan flow cytometry; assay type: functional
[2] = tested on: HCC1806; experiment: Induction of cell cycle arrest in human HCC1806 cells assessed as accumulation at S phase at 200 nM after 48 hrs by propidium iodide staining based FACScan flow cytometry (reference value: 18.89%); assay type: functional
[3] = tested on: HCC1806; experiment: Induction of cell cycle arrest in human HCC1806 cells assessed as accumulation at G2/M phase at 100 nM after 48 hrs by propidium iodide staining based FACScan flow cytometry (reference value: 10.38%); assay type: functional
[4] = tested on: HCC1806; experiment: Induction of cell cycle arrest in human HCC1806 cells assessed as accumulation at G1 phase at 100 nM after 48 hrs by propidium iodide staining based FACScan flow cytometry (reference value: 70.74%); assay type: functional
[5] = tested on: HCC1806; experiment: Induction of cell cycle arrest in human HCC1806 cells assessed as accumulation at S phase at 50 nM after 48 hrs by propidium iodide staining based FACScan flow cytometry (reference value: 18.89%); assay type: functional
[6] = tested on: HCC1806; experiment: Induction of cell cycle arrest in human HCC1806 cells assessed as accumulation at G2/M phase at 50 nM after 48 hrs by propidium iodide staining based FACScan flow cytometry (reference value: 10.38%); assay type: functional
[7] = tested on: SK-BR-3; experiment: Antiproliferative activity against human SK-BR-3 cells after 72 hrs by MTT assay; assay type: functional, cell-based; conditions: SK-BR-3, 72 h
[8] = tested on: T47D; experiment: Antiproliferative activity against human T47D cells after 72 hrs by MTT assay; assay type: functional, cell-based
[9] = tested on: HCC1937; experiment: Antiproliferative activity against human HCC1937 cells after 72 hrs by MTT assay; assay type: functional, cell-based; conditions: HCC1937, 72 h
[10] = tested on: HCC1806; experiment: Induction of apoptosis in human HCC1806 cells assessed as viable cells at 50 uM after 48 hrs by Annexin V-FITC/propidium iodide double staining based flow cytometry (reference value: 95.7%); assay type: functional; conditions: HCC1806, 48 h, read-out: Activity
[11] = tested on: HCC1806; experiment: Induction of cell death in human HCC1806 cells at 200 nM incubated for 72 hrs in presence of necroptosis inhibitor necrostatin-1 by MTT assay; assay type: functional, cell-based
[12] = tested on: DU-4475; experiment: Antiproliferative activity against human DU4475 cells after 72 hrs by MTT assay; assay type: functional, cell-based; conditions: DU-4475, 72 h
[13] = tested on: HCC1806; experiment: Antiproliferative activity against human HCC1806 cells after 72 hrs by MTT assay; assay type: functional, cell-based; conditions: HCC1806, 72 h
[14] = tested on: MDA-MB-468; experiment: Antiproliferative activity against human MDA-MB-468 cells after 72 hrs by MTT assay; assay type: functional, cell-based; conditions: MDA-MB-468, 72 h
[15] = tested on: MDA-MB-231; experiment: Antiproliferative activity against human MDA-MB-231 cells after 72 hrs by MTT assay; assay type: functional, cell-based; conditions: MDA-MB-231, 72 h
[16] = molecular target: T1, M-phase inducer phosphatase 3 (Homo sapiens) (UniProt P30307); experiment: Inhibition of cdc25c in human HCC1806 cells assessed as increase in cdc25c phosphorylation at ser216 residue by western blot analysis; assay type: cell-based
T1 sequence (whole entry): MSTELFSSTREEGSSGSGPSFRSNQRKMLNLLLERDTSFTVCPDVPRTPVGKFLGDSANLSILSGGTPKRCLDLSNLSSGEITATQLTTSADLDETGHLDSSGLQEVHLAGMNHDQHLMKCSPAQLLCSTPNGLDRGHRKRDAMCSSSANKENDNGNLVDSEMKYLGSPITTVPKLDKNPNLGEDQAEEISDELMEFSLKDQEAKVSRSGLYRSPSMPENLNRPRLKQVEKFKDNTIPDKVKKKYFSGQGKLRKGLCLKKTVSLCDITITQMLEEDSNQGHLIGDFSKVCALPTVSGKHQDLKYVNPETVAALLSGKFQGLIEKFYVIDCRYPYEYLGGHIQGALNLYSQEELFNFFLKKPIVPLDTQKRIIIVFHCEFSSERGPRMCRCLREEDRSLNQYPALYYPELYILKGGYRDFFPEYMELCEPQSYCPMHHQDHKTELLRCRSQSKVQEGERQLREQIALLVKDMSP

[17] = tested on: HCC1806; experiment: Induction of apoptosis in human HCC1806 cells assessed as early apoptotic cells at 200 uM after 48 hrs by Annexin V-FITC/propidium iodide double staining based flow cytometry (reference value: 2.16%); assay type: functional
[18] = tested on: HCC1806; experiment: Induction of apoptosis in human HCC1806 cells assessed as increase in Bax expression at 50 to 200 nM after 48 hrs by Western blot analysis; assay type: functional, cell-based
[19] = Inhibition of PI3K/Akt/mTOR signalling pathway in human HCC1806 cells assessed as reduction in phosphorylated mTOR expression at S2448 residue after 48 hrs by Western blot analysis; assay type: cell-based
[20] = tested on: HCC1806; experiment: Induction of cell death in human HCC1806 cells at 200 nM incubated for 72 hrs in presence of caspase inhibitor z-VAD by MTT assay; assay type: functional, cell-based
[21] = tested on: HCC1806; experiment: Inhibition of cell invasion in human HCC1806 cells at 100 to 200 nM incubated for 48 hrs by crystal violet staining based matrigel coated transwell assay; assay type: functional
[22] = tested on: HCC1806; experiment: Antimigratory activity against human HCC1806 cells assessed as reduction in MMP9 expression at 50 to 200 nM after 48 hrs by Western blot analysis; assay type: functional, cell-based
[23] = tested on: HCC1806; experiment: Suppression of FAK expression in human HCC1806 cells at 50 to 200 nM after 48 hrs by Western blot assay; assay type: functional, cell-based
[24] = molecular target: Focal adhesion kinase 1 (Homo sapiens) (UniProt Q05397); experiment: Inhibition of FAK phosphorylation at Tyr397 residue in human HCC1806 cells at 50 to 200 nM after 48 hrs by Western blot analysis; assay type: cell-based
Focal adhesion kinase 1 (Homo sapiens), sequence (Q05397 2-1052 limits assumed): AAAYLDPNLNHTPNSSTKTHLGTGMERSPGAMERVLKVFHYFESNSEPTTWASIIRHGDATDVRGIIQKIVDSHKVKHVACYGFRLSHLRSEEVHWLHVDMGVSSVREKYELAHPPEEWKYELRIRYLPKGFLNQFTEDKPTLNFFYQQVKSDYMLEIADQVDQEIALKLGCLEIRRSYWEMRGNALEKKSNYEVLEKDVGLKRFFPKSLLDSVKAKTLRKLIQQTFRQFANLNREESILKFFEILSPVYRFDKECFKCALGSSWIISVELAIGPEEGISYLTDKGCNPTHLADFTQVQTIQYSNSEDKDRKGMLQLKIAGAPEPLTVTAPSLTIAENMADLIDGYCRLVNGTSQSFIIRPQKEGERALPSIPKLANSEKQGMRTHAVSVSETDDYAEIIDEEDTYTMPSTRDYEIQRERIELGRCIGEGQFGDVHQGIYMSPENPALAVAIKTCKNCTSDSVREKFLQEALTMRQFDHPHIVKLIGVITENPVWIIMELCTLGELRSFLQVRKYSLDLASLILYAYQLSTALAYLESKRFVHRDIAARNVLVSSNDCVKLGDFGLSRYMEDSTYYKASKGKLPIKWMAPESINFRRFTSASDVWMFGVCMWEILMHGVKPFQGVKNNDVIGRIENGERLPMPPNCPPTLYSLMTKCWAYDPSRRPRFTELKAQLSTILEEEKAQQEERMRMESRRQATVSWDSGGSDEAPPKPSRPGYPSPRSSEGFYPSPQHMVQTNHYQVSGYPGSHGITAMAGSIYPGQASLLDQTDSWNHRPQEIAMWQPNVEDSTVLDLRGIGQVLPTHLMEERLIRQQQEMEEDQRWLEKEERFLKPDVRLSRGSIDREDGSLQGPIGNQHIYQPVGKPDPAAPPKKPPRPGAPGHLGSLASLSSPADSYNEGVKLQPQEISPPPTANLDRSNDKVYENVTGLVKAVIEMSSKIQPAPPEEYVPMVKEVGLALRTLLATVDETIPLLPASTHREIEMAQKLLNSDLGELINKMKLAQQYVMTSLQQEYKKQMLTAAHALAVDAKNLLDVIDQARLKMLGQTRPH

[25] = tested on: HCC1806; experiment: Antitumor activity against human HCC1806 cells harboring luciferase gene xenografted in ICR mouse assessed as shrunken tumor tissue at 12.5 to 25 mg/kg, iv administered once daily for 21 consecutive days and measured once every week; assay type: functional, organism-based
[26] = tested on: HCC1806; experiment: Antitumor activity against human HCC1806 cells xenografted in iv dosed ICR mouse assessed as reduction in tumor volume administered once per day for 23 consecutive days and measured every 2 days; assay type: functional, organism-based
[27] = tested on: HCC1806; experiment: Antitumor activity against human HCC1806 cells in ICR mouse assessed as reduction in tumor weight at 25 mg/kg, iv administered once per day for 23 consecutive days and measured every 2 days relative to control; assay type: functional; parameters: scale not given: the % may be the effect or the level left
[28] = tested on: HCC1806; experiment: Antitumor activity against human HCC1806 cells in ICR mouse assessed as tumor shrinkage at 12.5 to 25 mg/kg, iv administered once per day for 23 consecutive days by Ki67 staining-based immunohistochemical analysis; assay type: functional, organism-based
[29] = tested on: HCC1806; experiment: Antitumor activity against human HCC1806 cells in ICR mouse assessed as tumor shrinkage at 12.5 to 25 mg/kg, iv administered once per day for 23 consecutive days by TUNEL based immunohistochemical analysis; assay type: functional, organism-based
[30] = tested on: HCC1806; experiment: Antitumor activity against human HCC1806 cells in ICR mouse assessed as increase in apoptosis in tumor at 12.5 to 25 mg/kg, iv administered once per day for 23 consecutive days by hematoxylin and eosin staining based histopathological assay; assay type: functional, organism-based
[31] = Toxicity in ICR mouse assessed as induction of morphological changes in lung at 25 mg/kg, iv administered once per day for 23 consecutive days; assay type: organism-based; conditions: in vivo

For `C=C1C(=O)[C@@]23C(=O)[C@@H]4OC[C@]5(C=CCC(C)(C)[C@@H]45)[C@@H]2CC[C@@H]1[C@H]3OC(=O)/C=C/c1ccncc1`, the Activity [1] was “Dose-dependent effect”, the Activity [2] was 20.74% and the Activity [3] was 20.26%. For the same compound, the Activity [4] was 60.61%, the Activity [5] was 18.24% and the Activity [6] was 15.94%. For the same compound, the pIC50 [7] was 6.66, the pIC50 [8] was 6.25 and the pIC50 [9] was 6.55. The viability at 50 µM [10] was 82.2%, the Activity [11] was “Active” and the pIC50 [12] was 6.68. The pIC50 [13] was 6.74, the pIC50 [14] was 6.35 and the pIC50 [15] was 6.20. The inhibition [16] was “Dose-dependent effect”, the Activity [17] was 22.49% and the Activity [18] was “Active”. The inhibition [19] was “Dose-dependent effect”, the Activity [20] was “inactive” and the inhibition [21] was “Active”. The Activity [22] was “Active”, the inhibition [23] was “inactive” and the inhibition [24] was “Active”. For the same compound, the Activity [25] was “Active”, the Activity [26] was “Dose-dependent effect” and the Activity [27] was 74.1%. The Activity [28] was “Active”, the Activity [29] was “Active” and the Activity [30] was “Active”. The Activity [31] was “Non-Toxic”.
